Laboratory results: patent US20040019060A1, “Sigma receptor ligands and their medical uses” (priority 2000, published 2004)
Where a name gives a salt, the structure may show the parent alone.

How the values were obtained:
sponge angiogenesis [1] = assay: Mouse sponge angiogenesis model (triple radiotracer); assay type: in vivo, Balb/C mice; settings: 30 mg/kg i.p. daily, all time points, FIG. 7a
Source text: (§1) In order to study neoangiogenesis in the absence of tumours, sterile polyether sponges were implanted into animals. This technique, developed in Cambridge, has been widely used to study angiogenesis. We have employed a triple radiotracer technique to study different aspects of the angiogenic process.
Balb/C mice were implanted bilaterally s.c. with sterile 7 mm diameter polyether sponges on days -5, -12 and -16 days prior to termination (5-6 mice per group). The mice were given Lugol's solution (KI) for 3 days prior to injection of radionuclides to prevent uptake of iodine in the thyroid. 24 hours before termination, the mice were injected i.v with […] [131-I] 5′-iodo-2′-deoxyuridine (IudR). One hour prior to termination the mice were injected with 2 XCi 2-deoxy-D-(1-[H3]glucose (DG) and 2 minutes prior to termination 2XCi [Tc-99m]-exametazine (HMPAO).
The IudR uptake reflects cell proliferation (primarily endothelial cells and also a small proportion of the inflammatory cells which provide the angiogenic growth factors); the DG measures cellular glucose metabolism, and the HMPAO gives a measure of blood flow. All can be taken as separate indices of the degree of vascularisation of the sponge implants. Mice were treated i.p. daily with Rimcazole (30 mg/kg) from the day of sponge implantation, or vehicle alone.

[2] = test system: MDA MB 435 human breast carcinoma xenografts; assay: MDA MB 435 breast carcinoma xenograft growth and angiogenesis; assay type: in vivo, NCr athymic mice; settings: for Tumour growth (increase in volume relative to start of treatment): FIG. 8a
Method: MDA MB 435 human breast carcinoma cells (as a model of hormone-insensitive disease) were grown in tissue culture to 70% confluence, harvested with trypsin:EDTA, washed, resuspended in DMEM and injected bilaterally into the inguinal fat pads of 6 week old female NCr athymic mice (orthotopic site) at 1.5×10^6 cells in 50 μl. The mice were housed in filter boxes in […] laminar flow cabinets and fed sterilized food and water. All procedures were carried out in class 1 laminar flow hoods using sterile equipment and reagents. On day 7, the tumours were measured with vernier calipers across two perpendicular diameters, and the mice were randomised into experimental groups and treated as follows: 1. […] 2. […] 3. Rimcazole 15 mg/kg/day (as above). […] The preparations were made up freshly each day, and the animals dosed intraperitoneally for 24 days. Animals were observed daily and weighed regularly to check that there were no adverse effects of treatment. […] Differences in growth were compared using the Mann-Whitney U test. At termination of the experiment the mice were killed and tumours excised and weighed. Blood, liver and tumour samples were snap frozen for analysis of drug levels by LCMS/MS. Tumour samples were also cryopreserved, and sections cut and stained with MECA-32 (Developmental Studies Hybridoma Unit; rat anti mouse endothelium) visualised with HRP conjugated goat-anti rat (Star 72, Serotec) to estimate blood vessel density.

[3] = test system: Human mammary carcinoma (MDA MB 468) cells; assay: MTS cell viability/proliferation assay, mammary carcinoma cells; assay type: cell-based
Method: Human mammary carcinoma (MDA MB 468) cells were obtained from TCC, Manassas, Va., USA; catalogue number HTB-132; cells were grown in accordance with the manufacturer's instructions.
(§2) Cell density was checked microscopically at time zero.

sponge angiogenesis [4] = assay: Rat sponge angiogenesis model (125I albumin vascular volume); assay type: in vivo, CBH/cbi rats
Method: as §1
CBH/cbi rats were implanted s.c. with sterile 13 mm diameter sponges as above. They were treated i.p. with Rimcazole (30 mg/kg/day) for 14 days from day 0. Five minutes before termination, they were injected with ^125I labelled rat albumin (a macromolecule which, in the short term remains intravascular). The amount of radioiodine in the sponges is an index of vascular volume.

[5] = test system: Human endothelial cells co-cultured with human "feeder" fibroblasts; assay: In vitro angiogenesis assay (pseudocapillary formation, anti-CD31 staining); assay type: cell-based
Method: Human endothelial cells co-cultured with human “feeder” fibroblasts on a fibrin matrix in 24 well plates were incubated with ligands at different concentrations. The ligands were added on days 0, 4, 7 and 9 and the experiment terminated on day 11. On each plate, 2 wells served as untreated controls, and 2 received suramin at […] as a standard angiogenesis inhibitor. Each concentration of ligand was assayed in triplicate. On day 11, the wells were washed, and the endothelial cells fixed and stained with anti-CD31 (PECAM-1) antibody and visualised with alkaline phosphatase conjugated second antibody. The cultures were scanned for image analysis and quantitation using a DataCell image analysis system and ImagePro software. Angiogenesis was expressed as the area and/or perimeter of “pseudocapillaries” formed in the gel by the endothelial cells.

[6] = test system: human adult dermal fibroblasts; assay: MTS cell viability/proliferation assay, dermal fibroblasts; assay type: cell-based
Source text: (Tissue in all cases was from healthy donors). […] Primary cell types included:
as §2

endothelial cells = assay: Endothelial cell proliferation assay (cell phosphatase activity); assay type: cell-based, human; settings: Homo sapiens, Endothelial cell
Method: HUVECS (human umbilical vein endothelial cells) obtained from TCS Biologicals were grown in TCS Biologicals Large Vessel Endothelial Cell Basal Medium (ZHM-2951) with supplement (ZHS-8945). This contains heparin, hydrocortisone, human EGF, human bFGF (concentrations not disclosed by the Company) with added 2% FCS, pH 7.4.
(§3) HMEC-1 (immortalised human microvascular endothelial cells) obtained from Dr Colin Porter, Chester Beatty Laboratories were grown in TCS Biologicals Microvascular Endothelial Cell Basal Medium (ZHM-2946) with supplement (ZHS-8947). This contains heparin, hydrocortisone, human EGF, human bFGF, dibutyryl cyclic AMP (concentrations not disclosed by the Company) with added 5% FCS, pH 7.4.
as §3, with “HDMECS (human dermal” for “HMEC-1 (immortalised human”, “TCS Biologicals” for “Dr Colin Porter, Chester Beatty Laboratories”
The cells were seeded at 2×10^4 ml in 96 well microtitre plates on day 0, and sigma ligands were added in fresh medium on day 1. […] PCS at the concentrations indicated was present throughout the assay. Each concentration of drug was assayed in triplicate, and the vehicle concentration was kept constant.
Viable cells present at the end of the assay were estimated by determining phosphatase activity as follows: 100Xl of paranitrophenylphosphate (Sigma) at 3 mg/ml in phosphate buffer pH 5.5 containing 0.1% Triton X100 was added to wells and incubated for 2hr at 37° C. The reaction was stopped with 1N NaOH. Released paranitrophenol, indicative of attached cell number, was measured by reading the absorbance at 405 nm in a Titertek multiscan. […] The 100% value is the mean absorbance of control wells treated with vehicle alone; the 0% value is that of wells containing medium only.

`C[C@@H]1CN(CCCn2c3ccccc3c3ccccc32)C[C@H](C)N1` [Rimcazole, cis-9-[3,5-dimethyl-1-piperazinyl) propyl]carbazole dihydrochloride] was tested, and the “Cell proliferation (IUdR), cellular metabolism (DG) and blood flow (HMPAO) in sponge implants” value (sponge angiogenesis [1]) was “reduction”, the “Weights of excised tumours” value ([2]; 15 mg/kg dose, FIG. 8b) was “did not achieve statistical significance” and the “Tumour growth (increase in volume relative to start of treatment)” value ([2]; 15 mg/kg/day i.p. for 24 days, p=0.0228 Mann-Whitney U test) was “significant tumour growth retardation”. The “Tumour growth (increase in volume relative to start of treatment)” value ([2]; 30 mg/kg/day i.p. for 24 days, p=0.0436 Mann-Whitney U test) was “significant tumour growth retardation”, the “Weights of excised tumours” value ([2]; 30 mg/kg/day, p=0.0239, FIG. 8b) was “significantly less” and the “Health and body weight gain of mice during therapy” value ([2]; 15 and 30 mg/kg/day for 24 days, data not shown) was “remained healthy throughout therapy and gained weight at the same rate as controls”. For the same molecule, the “Vascular density in excised tumours” value ([2]; both doses (15 and 30 mg/kg/day), FIG. 8c) was “significantly inhibited”, the “Effect of sublethal concentration (MTS)” value ([3]; 5 micromolar, FIG. 10 bottom panel) was “cytostasis” and the “Cell killing (MTS viability)” value ([3]; 10 micromolar, low passage cells, FIG. 9) was “no surviving cells remained after 24 hours”. For the same molecule, the “Vascular volume of normal organs (liver and kidney)” value (sponge angiogenesis [4]; 30 mg/kg/day for 14 days) was “unaffected”, the “Neoangiogenesis in sponges (vascular volume, radiolabelled albumin)” value (sponge angiogenesis [4]; 30 mg/kg/day for 14 days after implantation, FIG. 7b) was “reduced” and the “Inhibition of in vitro angiogenesis” value ([5]; 4 μM, FIG. 5c) was “complete inhibition of angiogenesis”. The “Inhibition of pseudocapillary formation (in vitro angiogenesis)” value ([5]; FIG. 4, 5a, 5b angiogenesis area) was “very effective in inhibiting”, the “Survival and proliferation (MTS)” value ([6]; 10 micromolar, up to 48 hours, FIG. 9) was “continued to proliferate vigorously” and the “Tolerance of fibroblasts over a range of concentrations (MTS)” value ([6]; 100 micromolar to 1 nanomolar, FIG. 10) was “remarkably resistant”. The activity at 4 µM (endothelial cells; 4 μM Rimcazole, read-out: Endothelial cell proliferation, % of control cells) was < 50% and the IC50 (endothelial cells; concentration of drug required to inhibit survival and/or proliferation by 50%, read-out: Antagonists: IC50) was 5 µM.
